The structures appear in SMILES notation. pEC50, pIC50, pKi: −log10 of the molar value.

The subject of assay [1] is MCF-7 breast adenocarcinoma cells. Briefly: MCF-7 Proliferation Assay. In kind it is cell-based. The settings on record: antagonist mode, E2 10 pM, 14C-thymidine, B = class at 1 micromolar; for pIC50: Homo sapiens, MCF7. On the procedure: MCF-7 Proliferation Assay
MCF-7 breast adenocarcinoma cells (ATCC HTB 22) are maintained in MEM (minimal essential medium, phenol red-free, Gibco BRL) supplemented with 10% fetal bovine serum (FBS) (VN), L-glutamine (2 mM), sodium pyruvate (1 mM), HEPES ((N-[2-hydroxyethyl]piperazine-N′-[2-ethanesulfonic acid]) 10 mM}, non-essential amino acids(0.1 mM)and Penicillin Streptomycin(1×). Seven days prior to assay, MCF-7 cells are switched to assay media which is the same as maintenance medium except supplemented with 10% dextran-coated charcoal-stripped fetal bovine serum (DCC-FBS) assay medium in place of 10% FBS. MCF-7 cells are removed from flasks using 10× Trypsin EDTA (phenol red free, Gibco BRL) and diluted to 1× in (Ca++/Mg++ free HBSS (phenol red-free). Cells are adjusted to 80,000 cells/ml in assay medium. Approximately 8,000 cells (100 μl) are added to each well in 96 well Cytostar T scintillation plates (Amersham) and incubated at 37° C. in a 5% CO2 humidified incubator for 24 hours to allow cell adherence and equilibration after transfer. Serial dilutions of drugs are prepared in assay medium at 4× the final desired concentration). A 50 μl aliquot of drug dilutions (at 4× the final assay concentration) is transferred to duplicate wells followed by 50 μl assay medium for the agonist mode or 50 μl of 40 pM of E2 for the antagonist mode to a final volume of 200 μl. For each of the agonist plates, a basal level (media) and a maximum stimulated level (with 1 μM E2) is determined. For each of the antagonist plates, a basal level (media) and a E2 (10 pM) alone control is determined. After an additional 48 hours at 37° C. in a 5% CO2 humidified incubator, 20 μl of assay medium containing 0.01 μCi of ^14C-thymidine (52 mCi/mmol, […], Amersham) is added to each well. The plates are incubated overnight in the same incubator and then counted on the Wallac Microbeta counter. […] For the agonist mode, an EC50 and percent of maximum E2 stimulation and concentration of maximum stimulation is calculated.

Assay [2] has as its system Ishikawa human endometrial tumor cells. In words: Ishikawa Alkaline Phosphatase Assay. In kind it is cell-based. To be noted: for pEC50 / pIC50: Homo sapiens, Ishikawa; for pEC50 / Agonist % Eff: agonist mode; for Agonist % Eff: % efficacy versus the response to Tamoxifen; for % Eff / pIC50: antagonist mode; for % Eff: % efficacy versus E2 (1 nM) alone; for pIC50: with E2 (1 nM). The source says:
Ishikawa Alkaline Phosphatase Assay
Ishikawa human endometrial tumor cells are maintained in MEM (minimum essential medium, with Earle's salts and L-Glutamine, Gibco BRL, Gaithersburg, Md.), supplemented with 10% fetal bovine serum (FBS) (V/V), (Gibco BRL). One day prior to assay, growth media is changed to assay medium, DMEM/F-12 (3:1) (Dulbecco's Modified Eagle Medium: Nutrient Mixture F-12, 3:1 Mixture, phenol red-free, Gibco BRL) supplemented with 5% dextran coated charcoal stripped fetal bovine serum (DCC-FBS) (Hyclone, Logen, Utah), L-Glutamine (2 mM), MEM sodium pyruvate (1 mM), HEPES (N-[2-hydroxyethyl]piperazine-N′-[2-ethanesulfonic acid] 2 mM) all from Gibco BRL). After an overnight incubation, ishikawa cells are rinsed with Dulbecco's
Phosphate Buffered Saline (1×) (D-PBS) without Ca^+2 and Mg^+2 (Gibco BRL), and typsinized by a 3 minute incubation with 0.25% Trypsin/EDTA, phenol red-free (Gibco BRL). Cells are resuspended in assay medium and adjusted to 250,000 cells/ml. Approximately 25,000 cells in a 100 ul media are added to flat-bottom 96 wells microculture plates (Costar 3596) and incubated at 37° C. in a 5% CO2 humidified incubator for 24 hours. The next day, serial dilutions of compounds are prepared in assay medium (at 6 times the final concentration in the assay). The assay is run in dual mode, agonist and antagonist modes. For the agonist mode, plates receive 25 μl/well of assay medium followed by 25 μl/well of diluted compounds (at 6× the final concentrations). For the antagonist mode, plates receive 25 μl/well of 6 nM E2 (β-Estradiol, Sigma, St. Louis, Mo.) followed by 25 μl/well of diluted compounds (at 6× the final concentrations). After an additional 48-hour incubation at 37° C. in a 5% CO2 humidified incubator, media is aspirated from wells and 100 μl fresh assay medium is added to each microculture. Serial dilutions of compounds are prepared and added to the cells as described above. After an additional 72 hour incubation at 37° C. in a 5% CO2 humidified incubator, the assay is quenched by removing media and rinsing plates twice in Dulbecco's Phosphate Buffered Saline (1×) (D-PBS) (Gibco BRL). The plates are dried for 5 min and frozen at −70° C. for at least 1 hour. The plates are then removed from the freezer and allowed to thaw at room temperature. To each well, 100 μl of 1-Step™ PNPP (Pierce Chemical Company, Rockford, Ill.) is added. After a 20-minute incubation, plates are read on a spectophotometer at 405 nm. The data is fitted to a linear interpolation to derive EC50 (for agonist mode) or IC50 (for antagonist mode) values. For the agonist mode, a % efficacy for each compound is calculated versus the response to Tamoxifen. For the antagonist mode, a % efficacy for each compound is calculated versus E2 (1 nM) alone.

The target of assay [3] is T1, ERAlpha receptor (PanVera) (Homo sapiens, UniProt P03372).
T1 construct: purchased PanVera
T1 sequence (P03372 1-595): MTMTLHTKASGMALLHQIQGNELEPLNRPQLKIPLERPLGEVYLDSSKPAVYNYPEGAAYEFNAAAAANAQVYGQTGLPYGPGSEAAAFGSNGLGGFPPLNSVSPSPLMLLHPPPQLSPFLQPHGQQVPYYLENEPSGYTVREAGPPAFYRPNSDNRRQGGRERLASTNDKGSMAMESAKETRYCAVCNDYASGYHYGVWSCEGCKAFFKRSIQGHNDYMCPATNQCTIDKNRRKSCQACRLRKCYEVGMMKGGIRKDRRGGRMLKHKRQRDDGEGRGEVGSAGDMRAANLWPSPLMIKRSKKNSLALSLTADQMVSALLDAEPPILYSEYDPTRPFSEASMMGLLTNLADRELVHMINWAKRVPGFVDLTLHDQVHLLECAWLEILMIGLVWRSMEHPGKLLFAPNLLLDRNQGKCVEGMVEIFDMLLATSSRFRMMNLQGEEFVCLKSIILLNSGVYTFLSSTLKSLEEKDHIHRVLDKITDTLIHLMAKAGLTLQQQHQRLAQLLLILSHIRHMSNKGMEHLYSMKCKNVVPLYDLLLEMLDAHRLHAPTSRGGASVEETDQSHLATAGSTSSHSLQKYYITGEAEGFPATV
In words: ER competition binding assay (3H-Estradiol), ERalpha. The settings on record: IC50 converted to Ki by Cheng-Prusoff; 3H-Estradiol competition; A = class at 10 microMolar; read-out: Ki (ERα). On the procedure: (§1) Competition binding assay is run in a buffer containing 50 mM Hepes, pH 7.5, 1.5 mM EDTA, 150 mM NaCl, 10% glycerol, 1 mg/ml ovalbumin and 5 mM DTT, using 0.025 μCi per well ^3H-Estradiol(NEN #NET517 at 118 Ci/mmol, 1 mCi/ml), 10 ng/well ERAlpha or ERbeta receptor (PanVera). Competing compounds are added at 10 different concentrations. Non-specific binding is determined in the presence of 1 μM of 17-B Estradiol. The binding reaction (140 μl) is incubated for 4 hours at room temperature, then 70 μl of cold DCC buffer is added to each reaction (DCC buffer contains per 50 ml of assay buffer, 0.75 g of charcoal (Sigma) and 0.25 g of dextran (Pharmacia)). Plates are mixed 8 minutes on an orbital shaker at 4° C. Plates are then centrifuged at 3,000 rpm at 4° C. for 10 minutes. An aliquot of 120 μl of the-mix is transferred to another 96-well, white flat bottom plate (Costar) and 175 μl of Wallac Optiphase “Hisafe 3” scintillation fluid is added to each well. Plates are sealed and shaken vigorously on an orbital shaker. After an incubation of 2.5 hrs, read plates in a Wallac Microbeta counter. […] The Kd for ^3H-Estradiol is determined by saturation binding to ER alpha and ER beta receptors. The IC50 values for compounds are converted to Ki using Cheng-Prusoff equation and the Kd determined by saturation binding assay.

Assay [4] has as its target T2, ERbeta receptor (PanVera) (Homo sapiens, UniProt Q92731).
T2 construct: purchased PanVera
In words: ER competition binding assay (3H-Estradiol), ERbeta. To be noted: IC50 converted to Ki by Cheng-Prusoff; 3H-Estradiol competition; A = class at 10 microMolar; read-out: Ki (ERβ). On the procedure: as §1

T2 sequence (Q92731 whole entry): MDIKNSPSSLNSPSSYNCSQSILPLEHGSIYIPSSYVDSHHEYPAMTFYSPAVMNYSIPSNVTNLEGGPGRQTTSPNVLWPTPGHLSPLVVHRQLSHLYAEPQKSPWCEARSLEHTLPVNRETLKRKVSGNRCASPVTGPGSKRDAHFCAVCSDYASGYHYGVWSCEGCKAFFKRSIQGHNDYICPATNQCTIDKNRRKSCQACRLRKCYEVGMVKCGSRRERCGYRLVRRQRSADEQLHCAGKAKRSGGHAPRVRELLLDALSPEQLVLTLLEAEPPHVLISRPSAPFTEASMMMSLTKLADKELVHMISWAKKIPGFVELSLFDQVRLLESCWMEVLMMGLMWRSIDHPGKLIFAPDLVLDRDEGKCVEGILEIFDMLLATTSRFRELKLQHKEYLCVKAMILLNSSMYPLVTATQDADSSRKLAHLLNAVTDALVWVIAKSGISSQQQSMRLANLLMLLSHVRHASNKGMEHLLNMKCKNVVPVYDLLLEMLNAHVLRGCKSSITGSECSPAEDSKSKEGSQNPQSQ

As for `COc1ccc(C2CCc3cc(OC)ccc3N2C(=O)c2ccc(OCCN3CCCCC3)cc2)cc1` (stereo not drawn) [Example 1, [6-Methoxy-2-(4-methoxyphenyl)-3,4-dihydro-2H-quinolin-1-yl]-[4-4-(2-piperidin-1-yl-ethoxy)phenyl]methanone], in assay [1], the “IC50 (MCF7)” value is listed as “B^† (B means < 50% inhibition at 1 micromolar)”. In assay [2], the pEC50 (commonly the negative decadic logarithm of the EC50, by convention in mol/L) was 7.64; the “Agonist % Eff” value was 18%; the “% Eff” value is on record as 18%.
In the case of `COc1ccc2c(c1)CCC(c1ccccc1)N2C(=O)c1ccc(OCCN2CCCCC2)cc1` (stereo not drawn) [Example 2], the “IC50 (MCF7)” value in assay [1] is listed as “B (B means < 50% inhibition at 1 micromolar)”. Moreover, in assay [2], the “Agonist % Eff” value was −5% and the “% Eff” value was 28%.
For the molecule `O=C(c1ccc(OCCN2CCCCC2)cc1)N1c2ccc(O)cc2CCC1c1ccc(O)cc1` (stereo not drawn) [Example 3], the pKi – broadly, the Ki on a negative log10 scale, so that one unit is a factor of ten – in assay [3] is 7.06. For the same molecule, the pKi in assay [4] is 5.94. Moreover, the pIC50 (commonly −log10 of the IC50, conventionally taken in molar units) in assay [1] was 6.00. For the same molecule, in assay [2], the negative-log EC50 (pEC50) is 6.62, the “Agonist % Eff” value is 29% and the “% Eff” value was determined as 17%.
Consider `O=C(c1ccc(OCCN2CCCCC2)cc1)N1c2ccc(O)cc2CCC1c1ccccc1` (stereo not drawn) [Example 4], for which the pKi in assay [3] is 7.54. Further, in assay [2], the negative logarithm of the EC50 (pEC50) is 7.07, the pIC50 is 6.18, the “Agonist % Eff” value came to 44% and the “% Eff” value was determined as 47%.
With `Oc1ccc(C2CCc3cc(O)ccc3N2Cc2ccc(OCCN3CCCCC3)cc2)cc1` (stereo not drawn) [Example 7, 2-(4-Hydroxy-phenyl)-1-[4-(2-piperidin-1-yl-ethoxy)-benzyl)-1,2,3,4-tetrahydroquinolin-6-ol], the pKi in assay [3] was 9.40. The pIC50 in assay [1] was 6.32. In addition, in assay [2], the pEC50 was 6.66, the “Agonist % Eff” value was found to be 28% and the “% Eff” value stood at 17%.
`Oc1ccc2c(c1)CCC(c1ccccc1)N2Cc1ccc(OCCN2CCCCC2)cc1` (stereo not drawn) [Example 8, 2-Phenyl-1-[4-(2-piperidin-1-yl-ethoxy)-benzyl]-1,2,3,4-tetrahydroquinolin-6-ol]: in assay [3], the negative logarithm of the Ki (pKi) was 8.89. Moreover, the negative logarithm of the Ki (pKi) in assay [4] was 8.39. The negative-log IC50 (pIC50) in assay [1] is 6.27. Moreover, in assay [2], the pEC50 was 7.55, the pIC50 is 6.15, the “Agonist % Eff” value is reported as 31% and the “% Eff” value stood at 63%.
`Oc1cccc(C2CCc3cc(O)ccc3N2Cc2ccc(OCCN3CCCCC3)cc2)c1` (stereo not drawn) [Example 12, 2-(3-Hydroxy-phenyl)-1-[4-(2-piperidin-1-yl-ethoxy)-benzyl]-1,2,3,4-tetrahydro-quinolin-6-ol]: the pKi in assay [4] was 8.23. This molecule also gave a negative logarithm of the IC50 (pIC50) in assay [1] of 6.41. Also, in assay [2], the pEC50 was 6.85, the pIC50 was 6.05, the “Agonist % Eff” value was 29% and the “% Eff” value worked out at 31%.

These data come from patent US7056931B2, “2-substituted 1,2,3,4-tetrahydroquinolines and derivatives thereof, compositions and methods” (Eli Lilly and Company, priority 2001, dated 2006).
